How the values were obtained:
[1] = test system: IL-6; assay: IL-6 in LPS-exposed 3D ciliated airway tissue, sandwich ELISA; assay type: cell-based, human; details: 1 μg/ml LPS, 48 hours, 100 μg/ml
Experimental: Further dilutions were made in sterile distilled water (dH2O). […] After three hours of incubation with test materials, cells were exposed to endotoxin—1 μg/ml LPS (lipopolysaccharides from Escherichia coli O113:H10, Associates of Cape Cod, East Falmouth, Mass.) and the incubation continued for an additional 48 hours.
The tissue cultures were then evaluated for IL-6 which was quantified by Sandwich Elisa. All colorimetric measurements were performed using Molecular Devices microplate reader MAX190 and SoftMax3.1.2PRO software. Statistical significance was assessed with paired Student test. Deviations of ≥20% as compared to water control with p values below 0.05 were considered statistically significant.

[2] = test system: IL-6; assay: IL-6 secretion in LPS-induced human bronchial epithelial cells (HBEpC), ELISA; assay type: cell-based; details: 48 hrs, 20 μM
Description: (§1) HBEpC provide an excellent model for all aspects of respiratory epithelial function and diseases, particularly those related to airway viral/bacterial infections, including tissue repair mechanisms, signaling changes and potential treatments relevant to lung injuries, mechanical and oxidative stress, inflammation, etc., including that arising from or associated with pulmonary diseases and smoking. In this study, the inflammatory cytokines IL-6 and IL-8 were induced through pretreatment of the HBEpC with lipopolysaccharide (Cat #L2630, Sigma, Saint Louis, Mo.). After 3 hours of treatment the test and control materials were added to the cultures which were then incubated at […] for 48 hrs. Thereafter the IL-8 and IL-6 levels of the test cultures were measured by ELISA.
(§2) Each experimental condition and control were assayed at least in six replicates and statistical significance assessed with paired Student test. In conducting the assay, total insoluble proteins were quantified to determine the effect of the test materials on cell proliferation according to the method described by Voigt (Voigt, W. Sulforhodamine B assay and chemosensitivity. Methods Mol Med. 2005; 110:39-48).

[3] = test system: IL-6; assay: IL-6 release by urban dust-stimulated human keratinocytes (ELISA); assay type: cell-based; details: keratinocytes + 100 ug/ml urban dust, 24 hours; 100 μM (39 μg/ml)
Experimental: (§3) Human Keratinocyte Cell Culture: Human adult epidermal keratinocytes were grown using EpiLife Media (60 μM calcium) supplemented with 0.2% v/v bovine pituitary extract, 1 μg/ml recombinant human insulin-like growth factor-I, 0.18 µg/ml hydrocortisone, 5 μg/ml bovine transferrin, 0.2 ng/ml human epidermal growth factor. The cells were cultured at 37 C and 5% CO2. When a sufficient number of cells had been grown, they were seeded into 24-well plates and grown until confluent. Once confluent the cells were cultured overnight in hydrocortisone free EpiLife Media.
(§4) Preparation of Urban Dust & treatment: Urban dust was obtained from Sigma Chemicals (Standard Reference Material 1649b) and prepared at 10 mg/ml in hydrocortisone free EpiLife media. The urban dust solution was then sonicated for 10 minutes on ice. The test material was prepared in hydrocortisone free media supplemented with 100 ug/ml urban dust. […] Finally, one set of cells was not exposed to urban dust and was used to establish a baseline for each cytokine. […]
(§5) A series of standards was prepared and 100 μl of each of these standards was dispensed into two wells (duplicates) in the ELISA well plate. […] Once a sufficient level of color development had occurred, 50 μl of stop solution […]) was added to each well and the plate was read at 460 nm.

[4] = test system: interferon alpha; assay: IFN-α in medium of LPS-exposed 3D ciliated airway tissues, sandwich ELISA; assay type: cell-based, human; details: first value column of Table 6, 100 μg/ml
Experimental: (§6) The respective test materials were stored at room temperature and samples were solubilized in sterile water (LPS, TC, EMB) or DMSO (DEX) at 20 mg/ml, afterward all further dilutions were made in sterile distilled water. All test materials except LPS were assayed at 100 μg ml (LPS was added topically at 1 μg/ml on Day 2). Furthermore, TC and EMB were tested at 50 μg/ml and in two combinations: 50 μg/ml:50 μg/ml and 25 μg/ml:25 μg/ml. Samples were added to the feeder chamber medium contacting the basal side of the tissues on Day 1, then also topically on Day 2, together with LPS. All experimental conditions were tested in triplicates.
(§7) Twenty-four hours after pre-incubation with the test substances, the tissue cultures were exposed to 1 μg/ml endotoxin LPS and the incubation was continued for 48 additional hours. Following the incubation, the experiment tissue culture-conditioned medium was stored at −20° C. until further processing. Subsequently, IFN-α and IFN-γ were quantified in the tissue culture-conditioned medium by sandwich ELISA.

[5] = test system: IL-8; assay: IL-8 secretion in LPS-induced human bronchial epithelial cells (HBEpC), ELISA; assay type: cell-based; details: 48 hrs
Description: as §1, §2

[6] = test system: interferon gamma; assay: IFN-γ in medium of LPS-exposed 3D ciliated airway tissues, sandwich ELISA; assay type: cell-based, human; details: second value column of Table 6, 100 μg/ml
Experimental: as §6, §7

[7] = test system: IL-8; assay: IL-8 release by urban dust-stimulated human keratinocytes (ELISA); assay type: cell-based; details: keratinocytes + 100 ug/ml urban dust, 24 hours; 100 μM (39 μg/ml)
Experimental: as §3, §4, §5

[8] = molecular target: T1, IL-6R (Homo sapiens, UniProt P08887); details: Covid-19 patients, after treatment; preliminary findings; cited from earlier work
T1 construct: host or cells: endogenous receptor in Covid-19 patients (in vivo)
T1 sequence (P08887 20-468): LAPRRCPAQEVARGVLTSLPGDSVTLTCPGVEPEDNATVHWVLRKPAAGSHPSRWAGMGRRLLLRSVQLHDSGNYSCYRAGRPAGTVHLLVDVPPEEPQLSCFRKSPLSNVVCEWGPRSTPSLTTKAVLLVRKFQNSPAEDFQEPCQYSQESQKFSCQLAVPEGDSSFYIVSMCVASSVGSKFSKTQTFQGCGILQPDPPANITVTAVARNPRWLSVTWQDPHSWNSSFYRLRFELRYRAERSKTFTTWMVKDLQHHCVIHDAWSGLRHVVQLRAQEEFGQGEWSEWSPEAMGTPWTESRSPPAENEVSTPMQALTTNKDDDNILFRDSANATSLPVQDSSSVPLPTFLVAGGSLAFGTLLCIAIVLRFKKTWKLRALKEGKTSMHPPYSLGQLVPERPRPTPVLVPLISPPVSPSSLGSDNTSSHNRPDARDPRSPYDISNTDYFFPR

Compound | IL-6 (% control) [1] | IL-6 (% control) [2] | IL-6 [3] | Interferon alpha [4] | IL-8 (% control) ([5]; 20 μM) | IL-8 (% control) ([5]; 40 μM) | Interferon alpha [6] | IL-8 [7] | effect on fevers [8] | patients experiencing a reduced need for supplemental oxygen [8]
C[C@@H]1C[C@H]2[C@@H]3CCC4=CC(=O)C=C[C@]4(C)[C@@]3(F)[C@@H](O)C[C@]2(C)[C@@]1(O)C(=O)CO [Dexamethasone] | 123 % control | 77 % control | 61.0 ± 13.9 pg/mL | 6 pg/mL | 98 % control | 91 % control | 20 pg/mL | 86.9 ± 24.5 pg/mL | – | –
Actemra: humanized anti-IL-6R monoclonal antibody | – | – | – | – | – | – | – | – | rapidly reduced fevers | 75%

From US20210236580A1, “Methods and Compositions for Mitigating Symptoms of Acute Respiratory Distress Syndrome” (Sytheon Ltd, priority 2020, published 2021)
